# Columns and labels:
# [1] = test system: human thrombin; assay: Thrombin-induced platelet aggregation (turbidimetric); assay type: cell-based; conditions: compound 50 μM preincubated with thrombin
# Experimental: Blood samples in 0.32 % sodium citrate from healthy volunteers without cardiovascular disorders were collected, untreated with antiplatelet drugs. […] Platelets were isolated from PRP using BSA–Sepharose 2B gel filtration method according to Walkowiak et al. ([2000]). […] In these preparations, to nine volumes of thrombin one volume of polyphenolic compounds was added (final thrombin concentration was 15.8 nM). All tested compounds were dissolved in 50 % DMSO to the initial concentration of 10 mM; other solutions of compounds were also prepared in 50 % DMSO (prepared in 50 mM TBS, pH 7.4). […] The platelet aggregation was measured by turbidimetric method (Saluk-Juszczak et al., [2007]) using dual-channel Chrono-log optical aggregometer (Chronolog, USA). […] Platelet suspensions were pre-warmed at 37 °C with stirring.
# [2] = molecular target: human thrombin (Homo sapiens, UniProt P00734); assay: Thrombin-induced fibrinogen polymerization; assay type: biochemical; design: Thrombin, also known as an active plasma coagulation factor II; purchased Sigma-Aldrich Chemical Co. (St. Louis, MO, USA) T7009; conditions: thrombin preincubated with compound
# Experimental: In these preparations, to nine volumes of thrombin one volume of polyphenolic compounds was added (final thrombin concentration was 15.8 nM). All tested compounds were dissolved in 50 % DMSO to the initial concentration of 10 mM; other solutions of compounds were also prepared in 50 % DMSO (prepared in 50 mM TBS, pH 7.4). […] Polymerization of fibrin was monitored at 595 nm using a 96-well microtiter plate reader. To each reaction well of the microtiter plate, 100 μl of fibrinogen (3 mg/ml) in 50 mM TBS and 5 mM CaCl2, pH 7.4, were added. […] The maximal velocity of the polymerization process (V max, Δm OD/min) for each absorbance curve was determined (Nowak et al., [2007]).
smiles,measurement,setting,value
"O=c1c(O)c(-c2ccc(O)c(O)c2)oc2cc(O)cc(O)c12 [Quercetin, quercetin]","Platelet aggregation, % of control",[1],4%
same,Effect on thrombin ability to induce fibrinogen polymerization,[2]; 10 min 37 °C,inhibition of thrombin ability to induce fibrinogen polymerization
same,Concentration causing total inhibition of thrombin activity (fibrin polymerization),[2]; Vmax of fibrinogen polymerization at 595 nm,50 µM

# From paper PMC3939009, “Thrombin inhibitory activity of some polyphenolic compounds” (Medicinal Chemistry Research, 2013)
